Tests used:
AMPKα1(h) = AMPKα1(h) (Homo sapiens, UniProt Q13131); assay: Kinase panel, residual kinase activity at 1 μM inhibitor; type: biochemical
Procedure: (§1) In this table, residual kinase activity in the presence of 1 μM of each inhibitor is illustrated as a percentage of maximal activity.

Aurora-C(h) = Aurora-C(h) (Homo sapiens, UniProt Q9UQB9); assay: as above; type: biochemical
Procedure: as §1

CDK2/cyclinE(h) = CDK2/cyclinE(h) (Homo sapiens, UniProt P24941); assay: as above; type: biochemical
Procedure: as §1

CDK5/p35(h) = CDK5/p35(h) (Homo sapiens, UniProt Q00535); assay: as above; type: biochemical
Procedure: as §1

CaMKI(h) = CaMKI(h) (Homo sapiens, UniProt Q14012); assay: as above; type: biochemical
Procedure: as §1

CaMKIIα(h) = CaMKIIα(h) (Homo sapiens, UniProt Q9UQM7); assay: as above; type: biochemical
Procedure: as §1

CaMKIIδ(h) = CaMKIIδ(h) (Homo sapiens, UniProt Q13557); assay: as above; type: biochemical
Procedure: as §1

CaMKIV(h) = CaMKIV(h) (Homo sapiens, UniProt Q16566); assay: as above; type: biochemical
CaMKIV(h), sequence (Q16566 whole entry): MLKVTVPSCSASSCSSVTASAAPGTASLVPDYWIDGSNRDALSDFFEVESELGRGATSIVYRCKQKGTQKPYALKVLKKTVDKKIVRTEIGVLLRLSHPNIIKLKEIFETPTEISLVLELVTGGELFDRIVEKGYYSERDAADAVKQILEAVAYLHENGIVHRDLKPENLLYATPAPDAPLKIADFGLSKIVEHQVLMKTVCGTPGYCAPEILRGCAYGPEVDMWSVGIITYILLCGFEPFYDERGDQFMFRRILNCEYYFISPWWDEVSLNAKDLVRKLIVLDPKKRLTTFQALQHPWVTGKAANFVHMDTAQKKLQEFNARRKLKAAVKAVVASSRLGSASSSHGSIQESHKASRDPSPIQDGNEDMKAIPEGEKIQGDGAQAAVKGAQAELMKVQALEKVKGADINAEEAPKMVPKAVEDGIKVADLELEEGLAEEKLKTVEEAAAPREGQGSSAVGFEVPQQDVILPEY
Procedure: as §1

FAK(h) = FAK(h) (Homo sapiens, UniProt Q05397); assay: as above; type: biochemical
Procedure: as §1

FGFR1(h) = FGFR1(h) (Homo sapiens, UniProt P11362); assay: as above; type: biochemical
Procedure: as §1

GSK3α(h) = GSK3α(h) (Homo sapiens, UniProt P49840); assay: as above; type: biochemical
Procedure: as §1

GSK3β(h) = GSK3β(h) (Homo sapiens, UniProt P49841); assay: as above; type: biochemical
Procedure: as §1

JAK3(h) = JAK3(h) (Homo sapiens, UniProt P52333); assay: as above; type: biochemical
Procedure: as §1

JNK2α2(h) = JNK2α2(h) (Homo sapiens, UniProt P45984); assay: as above; type: biochemical
JNK2α2(h), sequence (P45984 whole entry): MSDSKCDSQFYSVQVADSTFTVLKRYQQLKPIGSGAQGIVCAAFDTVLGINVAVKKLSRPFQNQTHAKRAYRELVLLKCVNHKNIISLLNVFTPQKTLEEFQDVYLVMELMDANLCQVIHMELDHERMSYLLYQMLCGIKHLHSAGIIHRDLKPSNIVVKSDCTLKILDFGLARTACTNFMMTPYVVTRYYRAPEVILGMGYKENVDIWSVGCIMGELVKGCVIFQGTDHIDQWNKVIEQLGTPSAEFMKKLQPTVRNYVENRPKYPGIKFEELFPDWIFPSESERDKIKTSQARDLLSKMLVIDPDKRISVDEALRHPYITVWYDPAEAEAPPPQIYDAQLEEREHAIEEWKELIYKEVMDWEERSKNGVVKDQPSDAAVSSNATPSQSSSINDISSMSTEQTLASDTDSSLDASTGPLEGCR
Procedure: as §1

MAPK1(h) = MAPK1(h) (Homo sapiens, UniProt P27361); assay: as above; type: biochemical
Procedure: as §1

MEK1(h) = MEK1(h) (Homo sapiens, UniProt Q02750); assay: as above; type: biochemical
MEK1(h), sequence (Q02750 whole entry): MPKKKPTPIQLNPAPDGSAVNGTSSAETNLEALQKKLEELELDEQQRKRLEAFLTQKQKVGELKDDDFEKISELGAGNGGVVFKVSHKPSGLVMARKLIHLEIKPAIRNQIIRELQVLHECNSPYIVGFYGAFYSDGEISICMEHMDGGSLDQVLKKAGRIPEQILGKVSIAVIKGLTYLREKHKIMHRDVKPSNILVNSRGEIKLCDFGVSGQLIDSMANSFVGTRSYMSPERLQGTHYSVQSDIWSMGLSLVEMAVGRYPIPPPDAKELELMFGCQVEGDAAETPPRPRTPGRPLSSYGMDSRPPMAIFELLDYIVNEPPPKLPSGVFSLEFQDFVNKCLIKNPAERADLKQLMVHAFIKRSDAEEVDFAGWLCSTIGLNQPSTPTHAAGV
Procedure: as §1

PDK1(h) = PDK1(h) (Homo sapiens, UniProt O15530); assay: as above; type: biochemical
PDK1(h), sequence (O15530 whole entry): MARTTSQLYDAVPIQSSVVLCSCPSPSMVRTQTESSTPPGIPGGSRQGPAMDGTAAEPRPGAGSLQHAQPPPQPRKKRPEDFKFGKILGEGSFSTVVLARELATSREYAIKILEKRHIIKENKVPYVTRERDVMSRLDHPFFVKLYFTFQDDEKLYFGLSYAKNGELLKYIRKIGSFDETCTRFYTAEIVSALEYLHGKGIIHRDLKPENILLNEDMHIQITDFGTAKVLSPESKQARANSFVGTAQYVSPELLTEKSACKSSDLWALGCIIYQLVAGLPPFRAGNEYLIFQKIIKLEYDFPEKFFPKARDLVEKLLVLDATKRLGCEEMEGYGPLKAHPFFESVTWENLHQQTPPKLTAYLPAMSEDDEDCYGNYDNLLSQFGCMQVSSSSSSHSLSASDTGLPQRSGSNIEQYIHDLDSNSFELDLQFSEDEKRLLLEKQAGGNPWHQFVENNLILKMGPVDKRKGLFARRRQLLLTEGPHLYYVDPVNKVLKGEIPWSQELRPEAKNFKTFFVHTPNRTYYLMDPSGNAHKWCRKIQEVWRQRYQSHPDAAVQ
Procedure: as §1

[1] = biological target: PI3 Kinase (p110a/p85a)(h) (Homo sapiens, UniProt P42336); assay: as above; type: biochemical
Procedure: as §1

PKBγ(h) = PKBγ(h) (Homo sapiens, UniProt Q9Y243); assay: as above; type: biochemical
PKBγ(h), sequence (Q9Y243 whole entry): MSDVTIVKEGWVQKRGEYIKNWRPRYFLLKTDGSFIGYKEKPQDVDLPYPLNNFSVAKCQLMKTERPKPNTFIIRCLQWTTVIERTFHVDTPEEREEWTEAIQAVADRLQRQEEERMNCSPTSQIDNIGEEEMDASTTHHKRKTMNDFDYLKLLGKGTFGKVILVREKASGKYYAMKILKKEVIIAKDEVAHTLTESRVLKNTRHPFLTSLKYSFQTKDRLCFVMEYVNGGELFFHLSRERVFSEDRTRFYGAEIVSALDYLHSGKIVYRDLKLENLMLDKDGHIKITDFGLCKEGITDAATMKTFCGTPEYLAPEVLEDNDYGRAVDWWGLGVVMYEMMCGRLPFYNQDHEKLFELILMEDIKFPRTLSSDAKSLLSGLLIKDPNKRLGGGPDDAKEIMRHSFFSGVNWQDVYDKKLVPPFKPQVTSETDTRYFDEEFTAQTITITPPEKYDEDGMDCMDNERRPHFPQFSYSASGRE
Procedure: as §1

PKCα(h) = PKCα(h) (Homo sapiens, UniProt P17252); assay: as above; type: biochemical
Procedure: as §1

PKCδ(h) = PKCδ(h) (Homo sapiens, UniProt Q05655); assay: as above; type: biochemical
PKCδ(h), sequence (Q05655 whole entry): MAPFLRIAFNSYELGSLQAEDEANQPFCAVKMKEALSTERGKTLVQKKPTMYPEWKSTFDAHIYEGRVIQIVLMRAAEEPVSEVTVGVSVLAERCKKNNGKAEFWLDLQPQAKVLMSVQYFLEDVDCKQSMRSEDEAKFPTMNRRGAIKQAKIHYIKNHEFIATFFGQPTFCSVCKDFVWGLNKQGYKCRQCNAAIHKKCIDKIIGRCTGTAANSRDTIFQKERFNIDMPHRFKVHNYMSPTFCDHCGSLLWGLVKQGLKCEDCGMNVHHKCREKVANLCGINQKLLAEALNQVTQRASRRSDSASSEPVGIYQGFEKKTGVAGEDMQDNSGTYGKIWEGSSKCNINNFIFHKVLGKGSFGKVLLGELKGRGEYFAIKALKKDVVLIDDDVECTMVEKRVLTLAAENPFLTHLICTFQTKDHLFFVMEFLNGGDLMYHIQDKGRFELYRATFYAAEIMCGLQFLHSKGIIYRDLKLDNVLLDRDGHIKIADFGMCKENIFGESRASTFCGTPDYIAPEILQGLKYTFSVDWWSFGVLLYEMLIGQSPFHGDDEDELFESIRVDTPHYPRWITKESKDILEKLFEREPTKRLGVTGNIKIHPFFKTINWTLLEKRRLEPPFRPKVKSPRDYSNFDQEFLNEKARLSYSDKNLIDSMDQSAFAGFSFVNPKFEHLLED
Procedure: as §1

PKG1α(h) = PKG1α(h) (Homo sapiens, UniProt Q13976); assay: as above; type: biochemical
Procedure: as §1

PKG1β(h) = PKG1β(h) (Homo sapiens, UniProt Q13976); assay: as above; type: biochemical
Procedure: as §1

Pim-3(h) = Pim-3(h) (Homo sapiens, UniProt Q86V86); assay: as above; type: biochemical
Procedure: as §1

ROCK-II(h) = ROCK-II(h) (Homo sapiens, UniProt O75116); assay: as above; type: biochemical
Procedure: as §1

SAPK2a(h) = SAPK2a(h) (Homo sapiens, UniProt Q16539); assay: as above; type: biochemical
Procedure: as §1

SGK(h) = SGK(h) (Homo sapiens, UniProt O00141); assay: as above; type: biochemical
SGK(h), sequence (O00141 whole entry): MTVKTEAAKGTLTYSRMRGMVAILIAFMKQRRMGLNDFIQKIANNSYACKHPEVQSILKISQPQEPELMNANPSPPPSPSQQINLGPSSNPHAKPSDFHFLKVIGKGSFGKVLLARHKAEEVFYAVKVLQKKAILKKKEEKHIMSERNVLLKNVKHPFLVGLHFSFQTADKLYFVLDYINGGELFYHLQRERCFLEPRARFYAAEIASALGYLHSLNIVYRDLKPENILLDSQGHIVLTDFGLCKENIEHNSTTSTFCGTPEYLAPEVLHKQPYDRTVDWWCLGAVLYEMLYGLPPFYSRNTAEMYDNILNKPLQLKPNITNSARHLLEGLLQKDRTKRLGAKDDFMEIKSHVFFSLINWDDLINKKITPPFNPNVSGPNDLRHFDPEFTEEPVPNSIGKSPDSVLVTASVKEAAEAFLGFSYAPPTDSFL
Procedure: as §1

cKit(h) = cKit(h) (Homo sapiens, UniProt P10721); assay: as above; type: biochemical
Procedure: as §1

p70S6K(h) = p70S6K(h) (Homo sapiens, UniProt P23443); assay: as above; type: biochemical
p70S6K(h), sequence (P23443 whole entry): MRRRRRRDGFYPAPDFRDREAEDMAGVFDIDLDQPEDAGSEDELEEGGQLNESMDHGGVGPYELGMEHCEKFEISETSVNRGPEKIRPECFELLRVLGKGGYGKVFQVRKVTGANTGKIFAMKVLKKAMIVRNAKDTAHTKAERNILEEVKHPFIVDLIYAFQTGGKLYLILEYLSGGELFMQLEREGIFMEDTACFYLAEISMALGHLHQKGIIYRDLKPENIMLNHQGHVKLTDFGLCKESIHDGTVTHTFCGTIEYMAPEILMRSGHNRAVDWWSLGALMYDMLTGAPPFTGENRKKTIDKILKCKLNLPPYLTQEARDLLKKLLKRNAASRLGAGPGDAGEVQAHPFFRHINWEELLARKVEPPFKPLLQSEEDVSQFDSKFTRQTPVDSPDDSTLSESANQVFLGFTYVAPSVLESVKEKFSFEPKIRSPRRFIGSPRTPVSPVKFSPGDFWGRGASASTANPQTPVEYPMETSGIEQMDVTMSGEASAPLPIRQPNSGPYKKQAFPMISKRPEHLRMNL
Procedure: as §1

[2] = test system: LTP in CaMKII T286A slices; assay: LTP induction in hippocampal slices from CaMKII T286A mutant mice; type: cell-based, mouse; conditions: 10 μM inhibitor

Aurora-C(h), sequence (Q9UQB9 whole entry): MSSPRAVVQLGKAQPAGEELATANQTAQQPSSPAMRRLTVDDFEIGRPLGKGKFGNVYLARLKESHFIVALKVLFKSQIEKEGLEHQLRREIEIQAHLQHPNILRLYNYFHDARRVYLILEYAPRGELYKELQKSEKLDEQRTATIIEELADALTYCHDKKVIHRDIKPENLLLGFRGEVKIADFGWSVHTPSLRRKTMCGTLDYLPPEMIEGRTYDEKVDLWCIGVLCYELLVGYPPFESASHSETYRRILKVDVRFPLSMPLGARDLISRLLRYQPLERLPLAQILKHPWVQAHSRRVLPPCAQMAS

NCCNc1cccc(-c2ccnc3[nH]c4ccccc4c23)c1 [AS283]
residual kinase activity, AMPKα1(h) (AMPKα1(h)): 70 percentage of maximal activity
residual kinase activity, Aurora-C(h) (Aurora-C(h)): 63 percentage of maximal activity
residual kinase activity, CDK2/cyclinE(h) (CDK2/cyclinE(h)): 41 percentage of maximal activity
residual kinase activity, CDK5/p35(h) (CDK5/p35(h)): 33 percentage of maximal activity
residual kinase activity, CaMKI(h) (CaMKI(h)): 107 percentage of maximal activity
residual kinase activity, CaMKIIα(h) (CaMKIIα(h)): 3 percentage of maximal activity
residual kinase activity, CaMKIIδ(h) (CaMKIIδ(h)): 2 percentage of maximal activity
residual kinase activity, CaMKIV(h) (CaMKIV(h)): 90 percentage of maximal activity
residual kinase activity, FAK(h) (FAK(h)): 68 percentage of maximal activity
residual kinase activity, FGFR1(h) (FGFR1(h)): 58 percentage of maximal activity
residual kinase activity, GSK3α(h) (GSK3α(h)): 82 percentage of maximal activity
residual kinase activity, GSK3β(h) (GSK3β(h)): 87 percentage of maximal activity
residual kinase activity, JAK3(h) (JAK3(h)): 92 percentage of maximal activity
residual kinase activity, JNK2α2(h) (JNK2α2(h)): 82 percentage of maximal activity
residual kinase activity, MAPK1(h) (MAPK1(h)): 102 percentage of maximal activity
residual kinase activity, MEK1(h) (MEK1(h)): 85 percentage of maximal activity
residual kinase activity, PDK1(h) (PDK1(h)): 78 percentage of maximal activity
residual kinase activity, PI3 Kinase (p110a/p85a)(h) [1]: 100 percentage of maximal activity
residual kinase activity, PKBγ(h) (PKBγ(h)): 42 percentage of maximal activity
residual kinase activity, PKCα(h) (PKCα(h)): 49 percentage of maximal activity
residual kinase activity, PKCδ(h) (PKCδ(h)): 39 percentage of maximal activity
residual kinase activity, PKG1α(h) (PKG1α(h)): 48 percentage of maximal activity
residual kinase activity, PKG1β(h) (PKG1β(h)): 38 percentage of maximal activity
residual kinase activity, Pim-3(h) (Pim-3(h)): 97 percentage of maximal activity
residual kinase activity, ROCK-II(h) (ROCK-II(h)): 77 percentage of maximal activity
residual kinase activity, SAPK2a(h) (SAPK2a(h)): 95 percentage of maximal activity
residual kinase activity, SGK(h) (SGK(h)): 86 percentage of maximal activity
residual kinase activity, cKit(h) (cKit(h)): 50 percentage of maximal activity
residual kinase activity, p70S6K(h) (p70S6K(h)): 18 percentage of maximal activity
LTP induction in slices from T286A mutant mice [2]: enabled LTP
